Experimental data from patent US20230255943A1, “MMP-9 AND MMP-12 INHIBITION FOR TREATING SPINAL CORD INJURY OR RELATED INJURY TO NEUROLOGICAL TISSUE” (The University of Birmingham, priority 2020, published 2023).

Assays:
[1] = system: mice with DC crush injury; experiment: BSCB integrity by albumin immunoreactivity; assay type: in vivo, mouse; settings: oral
Description: After killing animals by exposure to rising concentrations of CO2, mice were intracardially perfused with 4% formaldehyde (TAAB Laboratories, Berkshire, UK) in 0.1M phosphate buffered saline (PBS). The lesion site+5 mm either side were dissected out, post-fixed in 4% formaldehyde and subjected to a graded series of sucrose solutions for cryoprotection. Spinal cords were blocked in OCT mounting compound (TAAB laboratories), sectioned longitudinally at 15 μm-thick using a cryostat (Brights Instruments, Huntingdon, UK) before being collected on charged glass slides (ThermoFisher Scientific, Loughborough, UK) and kept at −20° C. until required. Slides were numbered consecutively and sections from the middle of the lesion site were chosen for all immunohistochemical analyses, as described by previously (Surey S, Berry M, Logan A, Bicknell R, Ahmed Z. Differential cavitation, angiogenesis and wound-healing responses in injured mouse and rat spinal cords. Neuroscience 2014; 275: 62-80).
The integrity of the BSCB was assessed using albumin immunoreactivity in the spinal cord at 3 days after injury, as a surrogate marker of BSCB disruption. Sections were thawed at room temperature and washed in PBS before blocking endogenous […] in H2O2. […]

[2] = target: T1, MMP-9 (Mus musculus, UniProt P41245); experiment: MMP-9 enzyme activity after SCI in mice (SensoLyte 520 fluorimetric assay); assay type: in vivo; settings: for suppression of MMP-9 activity in CSF / suppression of MMP-9 activity in serum / suppression of MMP-9 activity in spinal cord tissues: DC injury; for suppression of MMP-9 activity in spinal cord tissues: lowest most effective dose; for lowest most effective dose: suppression of MMP-9 and MMP-12 activity
T1 construct: from tissue; host or cells: mouse spinal cord lesion site homogenate, serum and CSF
Description: For oral delivery of AZD1236, n=6 adult male C57BL6 mice/group (Charles River, Margate, UK) were randomly allocated to either: (1), Sham (control; partial laminectomy but no DC crush injury); (2), DC crush injury+vehicle (partial laminectomy followed by DC crush injury and injection of vehicle); (3), DC crush injury+100 mg/kg AZD1236; (4), DC crush injury+200 mg/kg AZD1236; and (5), DC crush injury+300 mg/kg AZD1236. For intrathecal (it) delivery of AZD1236, adult male C57BL6 mice (25-30 g) (Charles River, Margate, UK) were randomly allocated to either: (1), Sham (control; partial laminectomy but no DC crush injury); (2), DC crush injury+vehicle (partial laminectomy followed by DC crush injury and injection of vehicle); (3), DC crush injury+2.5 mg/kg AZD1236; (4), DC crush injury+5 mg/kg AZD1236; and (5), DC crush injury+10 mg/kg AZD1236. For intrathecal delivery an indwelling atlanto-occipital intrathecal catheter was inserted into the intrathecal space, as described previously (F. A. Oladosu, B. P. Ciszek, S. C. O'Buckley, A. G. Nackley, Novel intrathecal and subcutaneous catheter delivery systems in the mouse. J Neurosci Methods 264, 119-128 (2016)). Briefly, with mice in the sternal recumbency a small incision was made at the nape of the neck followed by detachment of the muscles on either side of the external occipital crest to expose the A-O membrane. The membrane was incised and a 6 cm Alzet mouse intrathecal catheter (Alzet, Cupertino, Calif., USA) and polyurethane segments were gently guided 2.5 cm into the intrathecal space. The catheter was secured using 4-0 silk sutures (Oasis Medical, IL) and the exposed end of the catheter was sealed off with a stainless-steel plug and affixed to the upper back. Animals were injected immediately with vehicle or AZD1236 followed by a 10 μl PBS catheter flush. Injections were repeated every twice daily for the first 3 days after injury and drugs and vehicle reagents were delivered over 1 min time period using a Hamilton microlitre syringe (Hamilton Co, USA). Where specified intact animals with no surgical procedures were also used. All lesions were administered under 5% isofluorane induced inhalation anaesthesia, with 1.51/min O2. Pre- and post-injury analgesia was also provided.
DC crush injury was administered bilaterally at the T8 vertebral level as described previously (S. Surey, M. Berry, A. Logan, R. Bicknell, Z. Ahmed, Differential cavitation, angiogenesis and wound-healing responses in injured mouse and rat spinal cords. Neuroscience 275, 62-80 (2014); M. L. Read, S. Mir, R. Spice, R. J. Seabright, E. L. Suggate, Z. Ahmed, M. Berry, A. Logan, Profiling RNA interference (RNAi)-mediated toxicity in neural cultures for effective short interfering RNA design. J Gene Med 11, 523-534 (2009)). Briefly, calibrated watchmaker's forceps were separated by 0.5 mm and inserted through the dorsal cord meninges to a depth of 0.45 mm in mice and separated by 1 mm and inserted through the dorsal cord meninges to a depth of 1.0 mm in rats, and the DC were crushed for 3 seconds. AZD1236 or vehicle was administered twice daily by oral gavage or intrathecally, either immediately for the first 3 days or 24 hours after injury and treating twice daily until day 4 (i.e. 3 days of AZD1236 dosing). All experiments were performed with n=6 mice/group and repeated on at least 2-3 independent occasions (total=12-18 animals/group/test).
CC SCI was administered at the T7-T8 vertebral level after exposure of T6-T9 by laminectomy. […]

T1 sequence (P41245 108-730): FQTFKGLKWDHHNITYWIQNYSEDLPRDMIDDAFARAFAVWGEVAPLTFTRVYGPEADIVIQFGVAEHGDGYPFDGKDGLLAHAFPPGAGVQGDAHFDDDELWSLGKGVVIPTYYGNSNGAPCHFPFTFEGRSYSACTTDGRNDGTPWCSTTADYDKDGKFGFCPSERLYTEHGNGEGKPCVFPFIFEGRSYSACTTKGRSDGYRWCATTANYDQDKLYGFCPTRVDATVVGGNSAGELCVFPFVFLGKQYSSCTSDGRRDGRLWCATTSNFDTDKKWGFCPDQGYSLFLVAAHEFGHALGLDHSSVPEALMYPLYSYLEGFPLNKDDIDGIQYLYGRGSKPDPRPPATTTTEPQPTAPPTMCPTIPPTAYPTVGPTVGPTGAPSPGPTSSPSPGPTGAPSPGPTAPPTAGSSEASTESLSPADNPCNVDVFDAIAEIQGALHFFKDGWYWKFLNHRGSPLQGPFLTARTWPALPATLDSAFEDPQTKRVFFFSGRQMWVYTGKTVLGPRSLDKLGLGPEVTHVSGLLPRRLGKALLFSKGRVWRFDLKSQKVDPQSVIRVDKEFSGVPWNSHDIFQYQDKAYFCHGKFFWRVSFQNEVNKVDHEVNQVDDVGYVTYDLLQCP

C[C@]1(CS(=O)(=O)N2CC=C(C#Cc3cnc(C4CC4)nc3)CC2)NC(=O)NC1=O [AZD1236]
suppression of area of BSCB breakdown (albumin immunoreactivity) ([1]; 24 h delayed treatment): > 73% | suppression of area of BSCB breakdown (albumin immunoreactivity) ([1]; immediately after injury, 3 days, vs DC+vehicle): > 75% | suppression of MMP-9 activity in CSF ([2]; intrathecal delivery): 88±2% | suppression of MMP-9 activity in serum ([2]; intrathecal delivery): 71±2% | suppression of MMP-9 activity in spinal cord tissues ([2]; intrathecal): 87±5% | suppression of MMP-9 activity in CSF ([2]; oral delivery, 200 mg/kg): 74±2% | suppression of MMP-9 activity in serum ([2]; oral delivery, 200 mg/kg): 90±2% | suppression of MMP-9 activity in spinal cord tissues ([2]; oral): 88±4% | time for MMP-9 activity to return to DC+Vehicle injury levels after withdrawal ([2]; injury site, oral dosing withdrawn after 3 d): 4 days | lowest most effective dose ([2]; intrathecal injection): 5 mg/kg | MMP-9 activity, 24-h delayed treatment ([2]; optimal doses, 24 h delay vs immediate): equally as effective as immediate delivery | lowest most effective dose ([2]; oral administration): 200 mg/kg
